Laboratory results: patent publication US20260062422A1 (Halda Therapeutics OpCo, Inc., priority 2022, published 2026)

System: T47D cells
Test: Cellular growth inhibition assay for T47D cells, CellTiter-Glo
Format: cell-based, human
Conditions: 72 hours treatment, CellTiter-Glo 2.0 cell viability
Experimental: T47D cells were purchased from American Type Cell Culture (ATCC Cat #HTB-133) and then seeded on poly-D-lysine coated, black clear-bottom 384-well plates at 3000/well in 25 μL Dulbecco's Modified Eagle Medium (DMEM) supplemented with 10% w/w Fetal bovine serum (FBS), 0.2 units/mL recombinant human insulin (Gibco Cat #12585014), and 1% w/w Pen-Strep. Pen-Strep is a commercially available mixture of penicillin G and streptomycin, which is used in mammalian cell culture media to prevent bacterial contamination. Dulbecco's Modified Eagle Medium (DMEM) supplemented with 10% w/w fetal bovine serum (FBS), 0.2 units/mL recombinant human insulin, and 1% w/w Pen-Strep is herein referred to as Treatment Medium. Following seeding of cells in the plates, the plates were spun at 300×g for 30 seconds, then equilibrated to room temperature for 30 minutes, and then deposited in a humidified tissue culture incubator maintained at 37° C. with 5% CO2.
At 24 hours after seeding of the cells, dilutions of test compound were prepared in DMSO and dissolved in Treatment Medium, to achieve a final DMSO concentration of 0.5% w/w, thereby providing the Test Compound Solution. A 25 μL aliquot of the Test Compound Solution was added to cells in the well plates. An equal volume of a solution containing DMSO and Treatment Medium was used as a negative control. Following treatment of cells with Test Compound Solution or said equal volume of a solution containing DMSO and Treatment Medium, the plates were spun at 300×g for 30 seconds, and then left in an incubator for 72 hours.
At the end of the treatment duration, cell viability was quantified with CellTiter-Glo 2.0 reagent (Promega Cat #G9243). For this purpose, plates were equilibrated to room temperature for 30 minutes, and then 25 μL of CellTiter-Glo 2.0 reagent was added to cells in the plate wells. Plates were then agitated on a shaker for two minutes at 500 rpm and subsequently incubated at room temperature for 10 minutes. Following incubation, the plates were spun at 3000×g for 30 seconds, then sealed with an optical adhesive cover, and luminescence readings were measured with an EnVision Plate Reader (Perkin Elmer).
Data was normalized using zero luminescence for baseline. A four-parameter non-linear regression curve fit was applied to dose-response data in GraphPad Prism data analysis software to determine the half-maximal growth inhibitory concentration (GI50) for each test compound.

GI50 (Homo sapiens, T47D, 72 h) [µM]	GI50 [µM]	Structure (SMILES)
> 3		Cc1sc2c(c1C)C(c1ccc(C#CC3CC4(CCCN(c5ncc(C(=O)N[C@H]6C(C)(C)[C@H](Oc7ccc(C#N)c(Cl)c7)C6(C)C)cn5)C4)C3)cc1)=NC1(CC1)c1nnc(C)n1-2 [Compound I-486]
	> 3	Cc1sc2c(c1C)C(c1ccc(C#CC3CC4(CCCN(c5ncc(C(=O)N[C@H]6C(C)(C)[C@H](Oc7ccc(C#N)c(Cl)c7)C6(C)C)cn5)C4)C3)cc1)=NC1(CC1)c1nnc(C)n1-2 [Compound I-487]
< 0.5		Cc1sc2c(c1C)C(c1ccc(CC3CC(C4CCCN(c5ncc(C(=O)N[C@H]6C(C)(C)[C@H](Oc7ccc(C#N)c(Cl)c7)C6(C)C)cn5)C4)C3)cc1)=N[C@@H](C)c1nnc(C)n1-2 (some centres unmarked) [Compound I-488]
	< 0.5	Cc1sc2c(c1C)C(c1ccc(CC3CC(C4CCCN(c5ncc(C(=O)N[C@H]6C(C)(C)[C@H](Oc7ccc(C#N)c(Cl)c7)C6(C)C)cn5)C4)C3)cc1)=N[C@@H](C)c1nnc(C)n1-2 (some centres unmarked) [Compound I-489]
0.5 to 1.5		Cc1sc2c(c1C)C(c1ccc(N3CC(C4CCN(c5cnc(C(=O)N[C@H]6C(C)(C)[C@H](Oc7ccc(C#N)c(Cl)c7)C6(C)C)cn5)CC4)C3)cc1)=N[C@@H](C)c1nnc(C)n1-2 [Compound I-490]
	> 3	Cc1sc2c(c1C)C(c1ccc([C@H]3C[C@@H]3CC3CCCN(c4ncc(C(=O)N[C@H]5C(C)(C)[C@H](Oc6ccc(C#N)c(Cl)c6)C5(C)C)cn4)C3)cc1)=NC(Cc1ncco1)c1nnc(C)n1-2 (some centres unmarked) [Compound I-491]
	> 3	Cc1sc2c(c1C)C(c1ccc([C@H]3C[C@@H]3CC3CCCN(c4ncc(C(=O)N[C@H]5C(C)(C)[C@H](Oc6ccc(C#N)c(Cl)c6)C5(C)C)cn4)C3)cc1)=N[C@@H](Cc1ncco1)c1nnc(C)n1-2 (some centres unmarked) [Compound I-492]
	0.5 to 1.5	Cc1sc2c(c1C)C(c1ccc([C@H]3C[C@@H]3CC3CCCN(c4ncc(C(=O)N[C@H]5C(C)(C)[C@H](Oc6ccc(C#N)c(Cl)c6)C5(C)C)cn4)C3)cc1)=N[C@@H](Cc1ncco1)c1nnc(C)n1-2 (some centres unmarked) [Compound I-493]
	< 0.5	Cc1sc2c(c1C)C(c1ccc([C@H]3C[C@@H]3CC3CCCN(c4ncc(C(=O)N[C@H]5C(C)(C)[C@H](Oc6ccc(C#N)c(Cl)c6)C5(C)C)cn4)C3)cc1)=NC(Cc1ncco1)c1nnc(C)n1-2 (some centres unmarked) [Compound I-494]
	< 0.5	Cc1sc2c(c1C)C(c1ccc([C@H]3C[C@@H]3CC3CCCN(c4ncc(C(=O)N[C@H]5C(C)(C)[C@H](Oc6ccc(C#N)c(Cl)c6)C5(C)C)cn4)C3)cc1)=NC(Cc1ncco1)c1nnc(C)n1-2 (some centres unmarked) [Compound I-495]
	< 0.5	Cc1sc2c(c1C)C(c1ccc([C@H]3C[C@@H]3CC3CCCN(c4ncc(C(=O)N[C@H]5C(C)(C)[C@H](Oc6ccc(C#N)c(Cl)c6)C5(C)C)cn4)C3)cc1)=NC(Cc1ncco1)c1nnc(C)n1-2 (some centres unmarked) [Compound I-496]
< 0.5		Cc1sc2c(c1C)C(c1ccc(-n3cnc(C4CCN(c5ncc(C(=O)N[C@H]6C(C)(C)[C@H](Oc7ccc(C#N)c(Cl)c7)C6(C)C)cn5)CC4)n3)cc1)=N[C@@H](Cc1ncco1)c1nnc(C)n1-2 [Compound I-497]
0.5 to 1.5		Cc1sc2c(c1C)C(c1ccc(N3CC4(CC(Cc5ncc(C(=O)N[C@H]6C(C)(C)[C@H](Oc7ccc(C#N)c(Cl)c7)C6(C)C)cn5)C4)C3)cc1)=N[C@@H](Cc1ncco1)c1nnc(C)n1-2 [Compound I-498]
> 3		Cc1sc2c(c1C)C(c1ccc(OCC3CC4(CCCN(c5ncc(C(=O)N[C@H]6C(C)(C)[C@H](Oc7ccc(C#N)c(Cl)c7)C6(C)C)cn5)C4)C3)cc1)=NC1(CC1)c1nnc(C)n1-2 [Compound I-499]
	> 3	Cc1sc2c(c1C)C(c1ccc(OCC3CC4(CCCN(c5ncc(C(=O)N[C@H]6C(C)(C)[C@H](Oc7ccc(C#N)c(Cl)c7)C6(C)C)cn5)C4)C3)cc1)=NC1(CC1)c1nnc(C)n1-2 [Compound I-500]
0.5 to 1.5		Cc1sc2c(c1C)C(c1ccc(CCOC3CCN(c4ncc(C(=O)N[C@H]5C(C)(C)[C@H](Oc6ccc(C#N)c(Cl)c6)C5(C)C)cn4)CC3)cc1)=N[C@@H](C)c1nnc(C)n1-2 [Compound I-501]
< 0.5		Cc1sc2c(c1C)C(c1ccc(N3CC(CC4CCN(c5ccc(C(=O)N[C@H]6C(C)(C)[C@H](Oc7ccc(C#N)c(Cl)c7)C6(C)C)cn5)CC4)C3)cc1)=N[C@@H](C)c1nnc(C)n1-2 [Compound I-502]
	> 3	Cc1sc2c(c1C)C(c1ccc(C#CC3CCC(Cc4ncc(C(=O)N[C@H]5C(C)(C)[C@H](Oc6ccc(C#N)c(Cl)c6)C5(C)C)cn4)CC3)cc1)=N[C@@H](Cc1ncco1)c1nnc(C)n1-2 (some centres unmarked) [Compound I-505]

GI50 (Homo sapiens, T47D, 72 h) [µM]	GI50 [µM]	Structure (SMILES)
	0.5 to 1.5	Cc1sc2c(c1C)C(c1ccc(C#CC3CCC(Cc4ncc(C(=O)N[C@H]5C(C)(C)[C@H](Oc6ccc(C#N)c(Cl)c6)C5(C)C)cn4)CC3)cc1)=N[C@@H](Cc1ncco1)c1nnc(C)n1-2 (some centres unmarked) [Compound I-506]
< 0.5		Cc1sc2c(c1C)C(c1ccc(CC3CC4(CCN(c5ccc(C(=O)N[C@H]6C(C)(C)[C@H](Oc7ccc(C#N)c(Cl)c7)C6(C)C)cn5)CC4)C3)cc1)=NC1(CC1)c1nnc(C)n1-2 [Compound I-507]
	0.5 to 1.5	Cc1sc2c(c1C)C(c1ccc(C3CC(CC4CCN(c5ncc(C(=O)N[C@H]6C(C)(C)[C@H](Oc7ccc(C#N)c(Cl)c7)C6(C)C)cn5)CC4)C3)cc1)=NC(C)c1nnc(C)n1-2 (some centres unmarked) [Compound I-508]
	< 0.5	Cc1sc2c(c1C)C(c1ccc(C3CC(CC4CCN(c5ncc(C(=O)N[C@H]6C(C)(C)[C@H](Oc7ccc(C#N)c(Cl)c7)C6(C)C)cn5)CC4)C3)cc1)=NC(C)c1nnc(C)n1-2 (some centres unmarked) [Compound I-509]
	> 3	Cc1sc2c(c1C)C(c1ccc(C3CC(CC4CCN(c5ncc(C(=O)N[C@H]6C(C)(C)[C@H](Oc7ccc(C#N)c(Cl)c7)C6(C)C)cn5)CC4)C3)cc1)=NC(C)c1nnc(C)n1-2 (some centres unmarked) [Compound I-510]
	> 3	Cc1sc2c(c1C)C(c1ccc(C3CC(CC4CCN(c5ncc(C(=O)N[C@H]6C(C)(C)[C@H](Oc7ccc(C#N)c(Cl)c7)C6(C)C)cn5)CC4)C3)cc1)=NC(C)c1nnc(C)n1-2 (some centres unmarked) [Compound I-511]
< 0.5		Cc1sc2c(c1C)C(c1ccc(CC3CC(CC4CCN(c5ncc(C(=O)N[C@H]6C(C)(C)[C@H](Oc7ccc(C#N)c(Cl)c7)C6(C)C)cn5)CC4)C3)cc1)=N[C@@H](C)c1nnc(C)n1-2 (some centres unmarked) [Compound I-512]
	< 0.5	Cc1sc2c(c1C)C(c1ccc(CC3CC(CC4CCN(c5ncc(C(=O)N[C@H]6C(C)(C)[C@H](Oc7ccc(C#N)c(Cl)c7)C6(C)C)cn5)CC4)C3)cc1)=N[C@@H](C)c1nnc(C)n1-2 (some centres unmarked) [Compound I-513]
< 0.5		Cc1sc2c(c1C)C(c1ccc(N3CC(CC4CN(c5ccc(C(=O)N[C@H]6C(C)(C)[C@H](Oc7ccc(C#N)c(Cl)c7)C6(C)C)nc5)C4)C3)cc1)=N[C@@H](C)c1nnc(C)n1-2 [Compound I-515]
1.5 to 3		Cc1sc2c(c1C)C(c1ccc(N3CC4(C3)CN(c3ncc(C(=O)N[C@H]5C(C)(C)[C@H](Oc6ccc(C#N)c(Cl)c6)C5(C)C)cn3)C4)cc1)=N[C@@H](C)c1nnc(C)n1-2 [Compound I-516]
1.5 to 3		Cc1sc2c(c1C)C(c1ccc(N3CC4(C3)CN(c3cnc(C(=O)N[C@H]5C(C)(C)[C@H](Oc6ccc(C#N)c(Cl)c6)C5(C)C)cn3)C4)cc1)=N[C@@H](C)c1nnc(C)n1-2 [Compound I-517]
> 3		Cc1sc2c(c1C)C(c1ccc([C@@H]3C[C@H]3C3CC4(CCN(c5cnc(C(=O)N[C@H]6C(C)(C)[C@H](Oc7ccc(C#N)c(Cl)c7)C6(C)C)cn5)CC4)C3)cc1)=N[C@@H](Cc1ncco1)c1nnc(C)n1-2 [Compound I-518]
	> 3	Cc1sc2c(c1C)C(c1ccc([C@@H]3C[C@H]3C3CC4(CCN(c5cnc(C(=O)N[C@H]6C(C)(C)[C@H](Oc7ccc(C#N)c(Cl)c7)C6(C)C)cn5)CC4)C3)cc1)=N[C@@H](Cc1ncco1)c1nnc(C)n1-2 [Compound I-519]
< 0.5		Cc1sc2c(c1C)C(c1ccc(CC3CC4(CCN(c5cnc(C(=O)N[C@H]6C(C)(C)[C@H](Oc7ccc(C#N)c(Cl)c7)C6(C)C)cn5)CC4)C3)cc1)=NC1(CC1)c1nnc(C)n1-2 [Compound I-520]
> 3		Cc1sc2c(c1C)C(c1ccc(OC3CC4(C3)CC3(CCN(c5cnc(C(=O)N[C@H]6C(C)(C)[C@H](Oc7ccc(C#N)c(Cl)c7)C6(C)C)cn5)CC3)C4)cc1)=NC1(CC1)c1nnc(C)n1-2 [Compound I-521]
1.5 to 3		Cc1sc2c(c1C)C(c1ccc(CC3CC4(CCN(c5ccc(C(=O)N[C@H]6C(C)(C)[C@H](Oc7ccc(C#N)c(Cl)c7)C6(C)C)nc5)CC4)C3)cc1)=NC1(CC1)c1nnc(C)n1-2 [Compound I-522]
1.5 to 3		Cc1sc2c(c1C)C(c1ccc(N3CC(CC4CCN(c5ccc(C(=O)N[C@H]6C(C)(C)[C@H](Oc7ccc(C#N)c(Cl)c7)C6(C)C)cn5)CC4)C3)cc1)=NC1(CC1)c1nnc(C)n1-2 [Compound I-523]
